# Assay results reported in patent US20040180959A1, “Gabapentin analogues for fibromy algia and concomitant disorders” (priority 2002, published 2004).
# Columns and labels:
# Type in all cases: in vivo
# CD-1 mice = assay: Tail Suspension Test (TST) in mice; conditions: 2 hours after treatment
# Protocol: The anxiolytic and antidepressant activity of (3S, 4S)-(1-Aminomethyl-3,4-dimethyl-cyclopentyl)-acetic acid (“Compound A”) was assessed using the Tail Suspension Test (TST) in mice, and in the Water-lick (Vogel) Conflict Test (WLC) in rats. The Vogel test is a recognized test procedure for assessing the potential anxiolytic utility. The TST procedure is a behavior despair paradigm used to assess potential antidepressant activity.
# The method consisted of suspending mice by a piece of cellophane tape attached to the distal end of the tail for 6 minutes. Animals (CD-1 mice, weighing 22 to 27 g, from Charles River Labs) were tested. The test apparatus was the TST-2™ (ITEM-Labo, Le Kremmlin-Bicetre Cedex, France). Data were analyzed with analysis of variance (ANOVA) and Tukey's Multiple Range Test or Student's t-test.
# (§1) Compound A was dissolved in water and tested orally as a solution from 0.3 to 100 mg/kg in rats and 3 to 300 mg/kg in mice. Dosages are expressed as the active moiety and were administered in a volume of 1 mL/kg for rats and 10 mL/kg for mice.
# The profile of typical […] activity in the TST consists of […]. Compound A and pregabalin were tested concurrently (PO) 2 hours after treatment. Compound A was administered at doses ranging from 3 to 100 mg/kg and pregabalin was tested from 3-300 mg/kg and served as positive control (Table 1). Compound A dose dependently increases immobility with the MED observed at the 3 mg/kg dosage and maximal effects were seen following the 30 mg/kg dose.
# Wistar rats = assay: Water-lick (Vogel) Conflict Test in rats; conditions: for Percent of Animals Tested With >20 Shock Episodes / Mean Shock Episodes (1 mA): pretreatment 120 minutes; for Mean Shock Episodes (1 mA): Mean ± SEM
# Protocol: In each experiment, naive adult male Wistar rats between 170 to 200 g were randomly divided into groups (N=10-30/group) and deprived of water for 48 hours prior to testing. Food was available on Day 1 and removed 24 hours prior to test Day 2.
# Apparatus: The modular operant test cage (Coulbourn Instruments) measures 10.25×12×12 in. The test chambers feature 3 modular bays on each side of the cage for a total of 6 bays. A module optical lickometer is mounted on one side of the chamber 5 cm above the grid floor. The lickometer is used to measure licking-drinking from a water bottle mounted outside the test chamber. A photo beam is piped via glass rods to the tip of the drink tube across a gap at the end of the tube. The animals tongue breaks the beam on each lick. The front and back of the test chamber is made of clear Plexiglas. The front door is covered to reduce distractions from inside the test room. The back of the test chamber is facing a wall, away from the flow of traffic within the testing room and remains uncovered to provide the opportunity for observations during testing. Shocks are delivered using a (Coulbourn) programmable universal shocker calibrated to deliver a 1 mA shock for 1 second through the drink tube.
# Procedure: On Day 1, after a 24-hour water deprivation, experimental subjects were placed into the test chambers and allowed to drink unpunished. Drinking was limited to 500 responses or approximately 5 mL of water during a 10 minute session. Immediately following the unpunished drinking session, rats were returned to their home cages, deprived of water for an additional 24 hours and was food deprived. […] After the pretreatment period rats were placed into a test chamber and allowed to drink for 10 minutes. After every 10 licks, rats received a 1-second shock (1 mA) through the drink tube. Thus, a conflict or anxiety-producing situation exists. Rats are motivated to drink; however, they are inhibited by the shock. Anxiety is reflected by the low amounts of drinking. Standard anxiolytic drugs produce effects that allow rats to overcome this behavioral inhibition and drink despite the shock.
# All data were analyzed using a Kruskal-Wallis one Way Analysis of Variance on Ranks and Mann-Whitney Rank Sum Tests.
# Quantitative Analysis: A quantitative analysis represents the percentage of subjects within a treatment group that receives >20 shock episodes during a test session. This number provides a quantitative comparison regarding the distribution of the responses.
# as §1
# mice = assay: Inverted Screen Test to assess coordination; conditions: immediately following the TST
# Protocol: Immediately following the TST, mice were also tested in the Inverted Screen Test to assess coordination. Animals were given a 1-minute trial in which they had to climb to the top of the inverted screen or to simply hang on and not fall off.
# [1] = dose 3× the Vogel MED (30 mg/kg)
smiles,measurement,setting,value
"CC(C)C[C@H](CN)CC(=O)O [Pregabalin, pregabalin, reference compound]","Immobility, % Percent of control",CD-1 mice; 3 mg/kg PO,102.9 ± 9.5%
same,"Power of Movement, % Percent of control",CD-1 mice; 3 mg/kg PO,99.1 ± 22.9%
same,"Immobility, % Percent of control",CD-1 mice; 10 mg/kg PO,134.5 ± 9.9 %
same,"Power of Movement, % Percent of control",CD-1 mice; 10 mg/kg PO,89.6 ± 18.7%
same,"Immobility, % Percent of control",CD-1 mice; 30 mg/kg PO,136.9 ± 7.1 %
same,"Power of Movement, % Percent of control",CD-1 mice; 30 mg/kg PO,96.4 ± 22.7%
same,"Immobility, % Percent of control",CD-1 mice; 100 mg/kg PO,152.7 ± 6.6 %
same,"Power of Movement, % Percent of control",CD-1 mice; 100 mg/kg PO,73.4 ± 12.5%
same,"Immobility, % Percent of control",CD-1 mice; 300 mg/kg PO,160.5 ± 7.4 %
same,"Power of Movement, % Percent of control",CD-1 mice; 300 mg/kg PO,76.6 ± 12.2%
same,Percent of Animals Tested With >20 Shock Episodes,Wistar rats; 0.3 mg/kg PO,0%
same,Mean Shock Episodes (1 mA),Wistar rats; 0.3 mg/kg PO,5.1 ± 1.0
same,Percent of Animals Tested With >20 Shock Episodes,Wistar rats; 1 mg/kg PO,20%
same,Mean Shock Episodes (1 mA),Wistar rats; 1 mg/kg PO,15.0 ± 6.3
same,Percent of Animals Tested With >20 Shock Episodes,Wistar rats; 3 mg/kg PO,20%
same,Mean Shock Episodes (1 mA),Wistar rats; 3 mg/kg PO,10.2 ± 1.6
same,Percent of Animals Tested With >20 Shock Episodes,Wistar rats; 10 mg/kg PO,20%
same,Mean Shock Episodes (1 mA),Wistar rats; 10 mg/kg PO,14.7 ± 4.0
same,Shock episodes (time-course),"Wistar rats; 10 mg/kg, 1 hr post treatment",65.8 ± 10.8
same,Shock episodes (time-course),"Wistar rats; 10 mg/kg, 2 hr post treatment",73.3 ± 13.7
same,Shock episodes (time-course),"Wistar rats; 10 mg/kg, 4 hr post treatment",75.1 ± 13.7
same,Shock episodes (time-course),"Wistar rats; 10 mg/kg, 6 hr post treatment",54.9 ± 14.7
same,Shock episodes (time-course),"Wistar rats; 10 mg/kg, 8 hr post treatment",41.9 ± 13.5
same,Percent of Animals Tested With >20 Shock Episodes,Wistar rats; 30 mg/kg PO,50%
same,Mean Shock Episodes (1 mA),Wistar rats; 30 mg/kg PO,51.0 ± 19.1
same,Shock episodes (time-course),"Wistar rats; 30 mg/kg, 30 min. post treatment",27.7 ± 8.2
same,Shock episodes (time-course),"Wistar rats; 30 mg/kg, 1 hr post treatment",66.5 ± 10
same,Shock episodes (time-course),"Wistar rats; 30 mg/kg, 2 hr post treatment",59.8 ± 9.8
same,Shock episodes (time-course),"Wistar rats; 30 mg/kg, 4 hr post treatment",100.3 ± 12
same,Shock episodes (time-course),"Wistar rats; 30 mg/kg, 6 hr post treatment",39.5 ± 9
same,Shock episodes (time-course),"Wistar rats; 30 mg/kg, 8 hr post treatment",30.4 ± 9.1
same,Percent of Animals Tested With >20 Shock Episodes,Wistar rats; 100 mg/kg PO,50%
same,Mean Shock Episodes (1 mA),Wistar rats; 100 mg/kg PO,40.7 ± 11.1
same,Time of maximal effects after treatment,Wistar rats; MED dose 10 mg/kg,2 to 4 h
same,Activity maintained through,Wistar rats; [1],8 h
same,Onset of activity after treatment,Wistar rats; [1],1 h
same,Time of peak activity post treatment,Wistar rats; [1],6 h
same,MED for anti-conflict activity,"Wistar rats; oral, 2 hour pretreatment, rats",10 mg/kg
same,"Screen fall-off, animals of animals tested",mice; 100 mg/kg PO,1 of 10
same,"Screen fall-off, animals of animals tested",mice; 300 mg/kg PO,1 of 10
